Here are results for two molecules from paper PMC6670186, “Novel prodrugs of decitabine with greater metabolic stability and less toxicity” (Clinical Epigenetics, 2019).

A short description of data set [1]: Adverse effects in xenograft-bearing nude mice (body weight, blood count, biochemical tests). It counts as in vivo. To be noted: for WBC count and liver function: doses equimolar to that of DAC. The procedure: (§1) HCT116 cells (5.0 × 10^6 cells per mouse) were subcutaneously injected into the inguinal region of 6-week-old female nude mice (n = 81) (BALB/c-nu/nu; CLEA Japan, Tokyo, Japan). Once tumors reached an average volume of 80 mm^3, mice bearing xenograft tumors were randomly divided into nine groups and treated intraperitoneally with vehicle (5% DMSO in 10% 2-hydroxypropyl-β-cyclodextrin solution), DAC, OR-2003, or OR-2100. The length and width of tumors were measured with standard calipers twice per week, and tumor volumes were calculated using the formula tumor volume = (length × width^2) × 0.5. Body weight was measured twice per week. […] The remaining mice were categorized as group 1 and continuously treated with drugs. At 29 days after the treatment, tumors, major organs, bone marrow, and blood serum were collected from six mice and blood count and biochemical tests were performed. The mice were maintained under standard conditions according to the institutional guidelines for animal care.

The nature of data set [2]: Partition coefficient (log P), shake-flask method, n-octanol/PBS. In kind it is physicochemical. The procedure: The method employed HPLC with the following conditions: ZORBAX Bonus C18 column (4.6 × 150 mm, 3 μm); eluent: A = 10 mM HCO2NH4, B = acetonitrile, A:B = 50:50 (an isocratic mode for 5 min), and A:B = 99:1–20:80 (a gradient mode for 15 min); flow rate = 1.0 mL/min; oven temperature = 40 °C; detection = 240 nm.

In data set [3] the test system is RKO cells. Kind of data set: Cell growth inhibition, RKO. In kind it is cell-based, Human. The protocol: (§2) Cells were seeded at a density of 1 × 10^3 to 5 × 10^3 cells/well in a 96-well microplate or 1 × 10^4 to 5 × 10^4 cells/well in a six-well microplate on day 0 in triplicate, followed by treatment with drugs on day 1. The cell growth of HCT116 was estimated using IncuCyte (Essen BioScience, K.K.; Tokyo, Japan) for 94 h. The cell viability of SW480, HT29, and TMK1 was evaluated using a WST-8 [2-(2-methoxy-4-nitrophenyl)-3-(4-nitrophenyl)-5-(2, 4-disulfophenyl)-2H tetrazolium, monosodium salt] assay (Nacalai Tesque Inc., Kyoto, Japan). The numbers of cells of RKO, breast cancer cell lines, sarcoma cell lines, and neuroblastoma cell lines were counted using a microscope. The half-maximum inhibitory concentration (IC50) was obtained using the non-linear regression analysis of log (inhibitor) versus the normalized response with a variable slope using the GraphPad Prism software (GraphPad Software; La Jolla, CA).

Data set [4] has as its system HCT116 cells. The data set can be described thus: Cell growth inhibition, HCT116. It counts as cell-based, Human. The procedure:
as §2

Data set [5] concerns HML58-3 cells. Kind of data set: Luciferase reporter assay for DNA demethylation. It counts as cell-based, Human. The note with it: 0.1 and 1.0 μM for 1 h, analyzed on day 5. The procedure:
Cells were seeded at a density of 5 × 10^3 cells/well in a 96-well microplate on day 0 in triplicate, and 5 × 10^4 cells/well in a six-well plate on day 0. On day 1, the medium was replaced with a medium containing a specific concentration of a drug, which was freshly dissolved in DMSO and filtered through a 0.2-μ filter. On day 5, the supernatant from each well of the 96-well microplate was collected to measure luminescence. Luminescence was measured using the Ready-To-Glow^TM Secreted Luciferase Reporter Assay (Clontech; Mountain View, CA) and a multimode plate reader ARVO^TMMX (PerkinElmer Japan Co Ltd.; Kanagawa, Japan).
(In a reporter assay the amount or activity of a reporter protein is the signal.)

Data set [6] concerns TMK1 cells. Kind of data set: Cell viability (WST-8), TMK1. It counts as cell-based. The procedure:
as §2
(In general: Tetrazolium dyes change colour on reduction, which living cells bring about.)

For data set [7], the system named is HCT116 xenografts. Kind of data set: Xenograft tumor formation assay in nude mice. It counts as in vivo. To be noted: for DNA demethylation of two promoters in xenograft tumors: group 2 mice; for tumor growth (tumor volume): intraperitoneal, twice per week. The protocol:
as §1

Data set [8] can be described thus: Stability in phosphate-buffered saline. It counts as physicochemical. To be noted: for Stability t1/2 in PBS: PBS 37 °C, 20** + x h, 20 h = t1/2 in PBS of DAC, x = OR compound; for t1/2 in PBS: PBS solution at 37°C. The protocol: Five microliters of DAC derivatives (1.0 mg/100 μL of DMSO) was added to 200 μL of a stirred PBS solution at 37 °C. The mixture was stirred continuously for 1 day. The remaining of the starting derivatives was assayed using the HPLC analytical conditions as described above.

For data set [9], the system named is HML58-3 cells. The data set can be described thus: Genome-wide DNA methylation analysis (Infinium MethylationEPIC). To be noted: 1 μM. In kind it is cell-based, Human. The procedure:
Genome-wide DNA methylation analysis was performed using an Infinium Human MethylationEPIC BeadChip (Infinium EPIC; Illumina; Sam Diego, CA) as described previously. The BeadArray assessed the degree of methylation of 862,927 CpG probes as beta-values that ranged from 0 (unmethylated) to 1 (fully methylated). To reduce the data size and obtain data that were easy to handle, the CpG probes were grouped into 548,546 genomic blocks (GBs), which consisted of probes within 500 bp.

The test system of data set [10] is HML58-3. Kind of data set: Expression microarray. In kind it is cell-based, Human. To be noted: 1 μM, 58,341 probes. The procedure:
Cy3-labeled cRNA was synthesized from 100 ng of total RNA using a Low Input Quick Amp Labeling Kit, One-Color (Agilent Technologies, Santa Clara, CA), and 600 ng of labeled cRNA was fragmented and hybridized to SurePrint G3 Human Gene Expression 8 x 60K v3 Microarray (Agilent Technologies). The hybridized microarray was scanned with an Agilent G2600D microarray scanner (Agilent Technologies). The scanned data were processed using Feature Extraction software (Agilent Technologies) and analyzed using GeneSpring software (Agilent Technologies). The 75th percentile of the signal intensity of all probes was normalized to be 0, and the genes with signal intensities of − 1 or more were regarded as showing positive expression.

Data set [11] concerns exogenous UCHL1 promoter and OSR2 promoter CpG island. The data set can be described thus: Quantitative methylation-specific PCR of marker genes. To be noted: qMSP; for DNA demethylation after pulse exposure: HML58-3 cells, 1.0 μM for 1 h; for DNA demethylation of exogenous UCHL1 promoter and OSR2 promoter CpG island: 0.0 to 10.0 μM. It counts as cell-based, Human. The procedure:
One microgram of EcoRV-digested genomic DNA was treated with sodium bisulfite as described previously. Bisulfite-treated DNA was resuspended in 40 μL of TE-buffer (10 mM Tris, pH 8.0; 1 mM EDTA, pH 8.0), and 1 μL was used for quantitative methylation-specific PCR (qMSP) using primers specific to methylated and unmethylated target loci, including MetLuc-UCHL1 promoter, OSR2 promoter, and UCHL1 promoter (Additional file 1: Table S1). As a fully unmethylated DNA control, genomic DNA from peripheral blood cells of a healthy person was amplified twice using a GenomiPhi DNA amplification kit (GE Healthcare Life Sciences; Little Chalfont, UK). As a fully methylated DNA control, the fully unmethylated DNA was methylated by SssI methylase (New England Biolabs; Beverly, MA).

A short description of data set [12]: Pharmacokinetics in mice, intraperitoneal. It counts as in vivo. To be noted: for AUC 0 → lim, DAC / AUC 0 → lim, Total / AUC 0 → lim, OR compound: plasma; for AUC 0 → lim, DAC: DAC (metabolite for OR compounds), equimolar dose; for AUC 0 → lim, Total: OR compound + metabolite DAC; for AUC 0 → lim, OR compound: dose equimolar to 0.20 mg/kg DAC. The procedure: Six-week-old female ICR mice were intraperitoneally injected with 0.20 mg/kg of DAC, 0.29 mg/kg of OR-2003, 0.32 mg/kg of OR-2009, 0.30 mg/kg of OR-2100, and 0.31 mg/kg of OR-2102. The doses were decided so that equivalent amounts of molar concentration would be administered. The blood plasma was collected before and at 5, 15, 30, 45, 60, 90, and 120 min after the treatment. All experimental procedures were approved by the Committee of National Cancer Center.

Data set [13] has as its target T1, human recombinant cytidine deaminase (Homo sapiens, UniProt P32320).
T1 construct: His; purchased AT Gen Co. Ltd; Seoul, Korea
Kind of data set: Stability in the presence of cytidine deaminase. It counts as in vitro ADME. From the text:
The remaining of the starting derivatives were continuously assayed using HPLC analytical conditions as described above.

For data set [14], the system named is SFRP1 and UCHL1. The data set can be described thus: RT-qPCR of tumor-suppressor genes after pulse exposure. In kind it is cell-based, Human. To be noted: HML58-3 cells, 1.0 μM for 1 h. The procedure:
Complementary DNA (cDNA) was synthesized from DNase-treated total RNA (1 μg) using oligo-(dT) 20 (Thermo Fisher Scientific; Waltham, MA) and SuperScript IV Reverse Transcriptase (Thermo Fisher Scientific). The number of cDNA molecules was quantified using qRT-PCR. The primer sequences and PCR conditions are shown in Additional file 1: Table S1. The copy number of each sample was calculated by comparing the amplification curve with those of standard DNA samples with known copy number. The number of target cDNA molecules was normalized to that of GAPDH cDNA molecules.

One may read the IC50 as the concentration that inhibits the measured activity by half. High values mean weaker potency, low ones greater potency.

Marks after values point to notes of the source that are not given here.

T1 sequence (P32320 whole entry): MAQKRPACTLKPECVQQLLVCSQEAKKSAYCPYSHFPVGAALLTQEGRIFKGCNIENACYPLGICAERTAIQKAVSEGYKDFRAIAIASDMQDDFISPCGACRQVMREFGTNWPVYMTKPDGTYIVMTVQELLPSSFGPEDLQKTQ

Turning to `CC[Si](CC)(CC)OC[C@H]1O[C@@H](n2cnc(N)nc2=O)C[C@@H]1O` [OR-2100], in data set [1], the “WBC count and liver function” value is “no influence”. In data set [1] (high dose), the adverse effects result is on record as “no adverse effects”. Also, the “Log PO/PBS” value in data set [2] is reported as 2.14. In [3], this molecule yielded an IC50 of 0.06 µM. The midpoint of inhibition in data set [4], the IC50, lay at 1.11 µM. Also, in data set [5], the “luciferase activity after pulse exposure” value was “weaker than that of DAC”. The same molecule gave an IC50 in [6] of 1.41 µM. In [7], the “DNA demethylation of two promoters in xenograft tumors” value is on record as “significant demethylation”; the “tumor growth (tumor volume)” value was “significant and dose-dependent inhibition of tumor growth”. For the same molecule, in data set [8], the “half-life (time to release DAC)” value is reported as at least 14 h, the “Stability t1/2 in PBS” value was 20** + 16 h and the “t1/2 in PBS” value amounted to 16 h. Besides, in data set [9], the “genome-wide DNA demethylation” value is given as “as strong DNA demethylation as DAC”. Moreover, the “number of genes upregulated more than twofold and to − 1.0 log2 value” in [10] is reported as 2041. In addition, in data set [11], the “DNA demethylation after pulse exposure” value is reported as “stronger demethylation”; the “DNA demethylation of exogenous UCHL1 promoter and OSR2 promoter CpG island” value is “slightly lower demethylation”. Moreover, in [12], the “total AUC of OR compound and metabolite DAC compared with DAC” value is “larger AUCs than that of DAC”; the “AUC 0 → lim, DAC” value amounted to 0.266 µM·h; the “AUC 0 → lim, Total” value was 0.434 µM·h; the “AUC 0 → lim, OR compound” value amounted to 0.168 µM·h.

With `CCC[Si](C)(C)OC[C@H]1O[C@@H](n2cnc(N)nc2=O)C[C@@H]1O` [OR-2003], the “enzymatic stability in the presence of CDA” value in data set [13] was “stable in the presence of CDA”. For the same molecule, in data set [1], the “WBC count and liver function” value is recorded as “no influence”. For the same molecule, the WBC count result in [1] (highest dose 3.600 mg/kg) was “affected the WBC count”. The “Log PO/PBS” value in data set [2] is 1.64. This molecule had an IC50 in data set [3] of 0.04 µM. In [4], this molecule came in with an IC50 of 0.91 µM. The same molecule registered an IC50 in [6] of 2.84 µM. Moreover, the “expression level of SFRP1 and UCHL1 after pulse exposure” value in data set [14] is “twice as high as that induced by DAC”. Further, in data set [7], the “DNA demethylation of two promoters in xenograft tumors” value is given as “significant demethylation”; the “tumor growth (tumor volume)” value was “significant and dose-dependent inhibition of tumor growth”. The tumor growth inhibition result in [7] (highest dose 3.600 mg/kg) is reported as “strongest effect”. In data set [8], the “half-life (time to release DAC)” value is listed as 1 h, the “Stability t1/2 in PBS” value is 20** + 1 h and the “t1/2 in PBS” value is 1.0 h. Moreover, the “genome-wide DNA demethylation” value in [9] is “as strong DNA demethylation as DAC”. In addition, in [10], the “number of genes upregulated more than twofold and to − 1.0 log2 value” is recorded as 2060. In [11], the “DNA demethylation after pulse exposure” value is “stronger demethylation”; the “DNA demethylation of exogenous UCHL1 promoter and OSR2 promoter CpG island” value is recorded as “as strongly as DAC”. For the same molecule, in data set [12], the “total AUC of OR compound and metabolite DAC compared with DAC” value is given as “larger AUCs than that of DAC”; the “AUC 0 → lim, DAC” value was found to be 0.338 µM·h; the “AUC 0 → lim, Total” value was 0.643 µM·h; the “AUC 0 → lim, OR compound” value worked out at 0.305 µM·h. Moreover, in data set [12] (comparison among four OR compounds), the Cmax result was “highest Cmax”.
